# Measured values from patent US10575526B2 (priority 2004, dated 2020).
# Legend:
# [1] = system: SAR genes, WIR2 (PR5) and WCI3; experiment: Time-course Northern blot analysis of SAR gene induction in glyphosate tolerant wheat; conditions: leaf tissues of glyphosate tolerant wheat; INA 200 ppm in 0.1% surfactant blank
# [2] = system: leaf rust spores (Puccinia triticina); experiment: Leaf rust infection of treated glyphosate tolerant wheat in the SAR study; assay type: in vivo; conditions: glyphosate tolerant wheat inoculated one day after treatment; WeatherMAX 0.75 lb/acre, INA 200 ppm
# Septoria = experiment: In vitro fungal cell growth on media containing glyphosate; assay type: cell-based; conditions: crop of interest Wheat
# corn EPSPS [3] = conditions: read-out: Ki for glyphosate; cited from earlier work
# [4] = Glyphosate residue analysis in RR corn (GA21); assay type: in vivo; conditions: 2 × 0.75 lb
# Description: (§1) The selection of application rates that are effective for a specific plant pathogen is within the skill of the ordinary agricultural scientist. […] Useful application rates for the glyphosate compositions employed can depend upon all of the above conditions.
# [5] = Glyphosate residue analysis in RR canola; assay type: in vivo; conditions: 0.8 lb, seed
# Description: as §1
# [6] = system: Verticillium wilt (Verticillium dahliae); experiment: Verticillium wilt control in Roundup Ready cotton; assay type: in vivo; conditions: three genetic backgrounds, 22 ounces of WeatherMax Roundup at two and five true leaf stage, observed about three and four months after planting, versus adjacent untreated plot
# Description: The cotton seeds were planted and the emerged plants were sprayed with 22 ounces of WeatherMax Roundup® at the two and five true leaf stage. […] The treated plants continued to grow compared to the untreated plants that had shut down. […] Cotton plants suffering from other wilt diseases of cotton, especially Fusarium wilt disease, are expected to benefit from treatment with glyphosate.
# Asian soybean rust [7] = experiment: Field trial of glyphosate and Opera fungicide on Asian soybean rust; assay type: in vivo, Phakopsora pachyrhizi
# Protocol: A field study was conducted to further confirm the greenhouse study. The same cultivars were planted in three replicated plots and treatments as described in the greenhouse study. […] All treatments were effective in preventing disease on RR8045 cultivar.
# corn EPSPS [8] = experiment: Kinetic studies of EPSPS inhibition by glyphosate; assay type: biochemical; conditions: equivalent of 0.5 μM
# Description: Structural studies of EPSPS based on X-ray crystallography have identified key amino acids involved in catalysis.
# [9] = Glyphosate residue analysis in RR potato; assay type: in vivo; conditions: tubers
# Description: as §1
# [10] = Glyphosate residue analysis in RR rice; assay type: in vivo
# Description: as §1
# [11] = Glyphosate residue analysis in RR soybean; assay type: in vivo; conditions: 3 × 0.75 lb, V3/R1/PH
# Description: as §1
# [12] = Glyphosate residue analysis in RR cotton; assay type: in vivo; conditions: 3 × 1.5 lb, OT/PD/PH, seed
# Description: as §1
# Puccinia = experiment: In vitro fungal cell growth on media containing glyphosate; assay type: cell-based; conditions: crop of interest Wheat
# Puccinia spores [13] = experiment: Tissue glyphosate concentration and disease prevention in glyphosate tolerant wheat; assay type: in vivo
# Protocol: Four different regimens are employed. […] The inoculated plants are then incubated for 24 hours at 100% relative humidity for germination of the spores. […] Disease conditions are evaluated macroscopically for pustule development and lesion development.
# Botrytis = experiment: In vitro fungal cell growth on media containing glyphosate; assay type: cell-based; conditions: crop of interest Veg/strawberry
# Fusarium = experiment: as above; assay type: cell-based; conditions: crop of interest Wheat/potato
# [14] = system: Asian soybean rust (Phakopsora pachyrhizi); experiment: Field observation of Asian soybean rust in glyphosate tolerant soybean; assay type: in vivo; conditions: Brazil
# Protocol: Asian soybean rust is an aggressive foliar disease of soybean that occurs where soybeans are grown in Asia, and more recently, in southern Africa, Paraguay, Argentina and Brazil. Phakopsora pachyrhizi, the fungus that causes Asian soybean rust, has been found in the continental United States. Glyphosate compositions are used to control, prevent or treat disease in glyphosate tolerant soybean plants (RR) under field conditions. A single application rate of Roundup® (1×=0.75 lbs ae/acre or 0.84 kg ae/ha) or multiple applications are applied times to a rust susceptible variety of soybean. The Roundup® treated plants are not treated with any fungicide and allowed to be naturally infected with Asian soybean rust. In addition, glyphosate-tolerant soybean plants can be grown in a greenhouse and manually infected with spores to induced disease infection.
# Rust development is delayed 7-10 days in RR soybean (sprayed at ˜V4 stage), as compared to conventional soy. Rust severity is less in RR soybean as compared to conventional soybean in early season observations.
# [15] = Glyphosate residue analysis in RR wheat; assay type: in vivo
# Description: as §1
# Puccinia spores [16] = experiment: Translocation of glyphosate to shielded wheat leaf for leaf rust prevention; assay type: in vivo
# Description: In the data shown in FIG. 1, the top fully expanded wheat leaf was shielded from Roundup® spray (0-1×, 1× at 0.75 lb ae/a) followed by inoculation of wheat rust spores to the shielded leaf at 1 day after treatment (DAT).
# 14C-glyphosate is sprayed over-the-top to wheat plants using field application conditions and use rates. The top fully-expanded leaf (one leaf) is shielded from the spray (the untreated leaf).
# Pyricularia = assay type: cell-based; conditions: growth media, crop of interest Rice
# [17] = system: Common rust or Southern rust spores (Puccinia sorghi, Puccinia polysora); experiment: Field tests of glyphosate on rust diseases of Roundup Ready corn nk603; assay type: in vivo; conditions: 1 to 9 scale
# [18] = Glyphosate residue analysis in RR sugarbeet; assay type: in vivo
# Description: as §1
# Phytophthora = experiment: In vitro fungal cell growth on media containing glyphosate; assay type: cell-based; conditions: crop of interest Potato/soy
# Pseudocercosporella = experiment: as above; assay type: cell-based; conditions: crop of interest Wheat
# rust spores = experiment: Glyphosate as post-infection treatment of glyphosate tolerant wheat; assay type: in vivo; conditions: evaluated 11 DAI
# Protocol: Depending on the treatment to be used, the spores are then allowed to germinate. […] Disease incidence is evaluated 11 DAI.
# Gaeumannomyces = experiment: In vitro fungal cell growth on media containing glyphosate; assay type: cell-based; conditions: crop of interest Wheat
# Asian soybean rust [19] = experiment: Greenhouse study of glyphosate and Opera fungicide on Asian soybean rust; assay type: in vivo, Phakopsora pachyrhizi
# Rhizoctonia = experiment: In vitro fungal cell growth on media containing glyphosate; assay type: cell-based; conditions: crop of interest Wheat/potato
structure (smiles),measurement,setting,value
"O=C(O)c1cc(Cl)nc(Cl)c1 [INA, 2,6-dichloro isonicotinic acid]",WCI3 gene induction (Northern blot),[1],induced
same,leaf rust infection / resistance,[2],did not confer leaf rust resistance
"O=C(O)CNCP(=O)(O)O [glyphosate, N-phosphonomethylglycine]","In vitro EC90, ppm",Septoria,<100 ppm
same,Ki,corn EPSPS [3],500 nM
same,Gly (ppm),"[4]; V4/V8, forage",0.73 ppm
same,Gly (ppm),"[4]; V4/V8, grain",0.07 ppm
same,Gly (ppm),"[4]; V4/V8, stover",1.30 ppm
same,Gly (ppm),[5],0.02 ppm
same,wilt symptoms,[6],reduced symptoms
same,%_disease,"Asian soybean rust [7]; RR8000, glyp 1X",23.3%
same,%_disease,"Asian soybean rust [7]; RR8000, glyp 2X",10.0%
same,%_disease,"Asian soybean rust [7]; RR8045, glyp 1X",0.0%
same,%_disease,"Asian soybean rust [7]; RR8045, glyp 2X",1.7%
same,Ki expressed as glyphosate in plant tissues,corn EPSPS [8],approximately 0.15 ppm
same,Gly (ppm),"[9]; 2 × 1.5 lb, 2 lf/row closure",4.10 ppm
same,Gly (ppm),"[9]; 3 × 1.5 lb, 2 lf/row clo/PH",8.60 ppm
same,Gly (ppm),"[10]; 1.5 lb 5 lf, grain",0.05 ppm
same,Gly (ppm),"[10]; 1.5 lb 5 lf, straw",0.05 ppm
same,Gly (ppm),"[10]; 2 × 1.12 lb, 5 lf/pan ini, grain",3.00 ppm
same,Gly (ppm),"[10]; 2 × 1.12 lb, 5 lf/pan ini, straw",3.10 ppm
same,Gly (ppm),"[10]; 3 × 1.12 lb, 5 lf/pan ini/PH, grain",14.80 ppm
same,Gly (ppm),"[10]; 3 × 1.12 lb, 5 lf/pan ini/PH, straw",6.90 ppm
same,Gly (ppm),[11]; forage,7.60 ppm
same,Gly (ppm),[11]; hay,1.30 ppm
same,Gly (ppm),[11]; seed,0.80 ppm
same,Gly (ppm),[12],1.60 ppm
same,"In vitro EC90, ppm",Puccinia,5000 ppm
same,pustule development,"Puccinia spores [13]; 12 days after inoculation, wheat treated with 1× spray, inoculated 1 day or 14 days after treatment, controls about 25% to about 30%",less than 1%
same,tissue concentration of glyphosate at which pustule development is prevented,Puccinia spores [13]; glyphosate tolerant wheat leaf,about 10 ppm
same,"In vitro EC90, ppm",Botrytis,<100 ppm
same,"In vitro EC90, ppm",Fusarium,1000 ppm
same,rust severity,"[14]; RR soybean compared to conventional soybean, early season observations",less
same,delay of rust development,"[14]; RR soybean sprayed at ~V4 stage, compared to conventional soy",7 to 10 days
same,Gly (ppm),"[15]; 0.75 lb, 4 lf, forage",2.30 ppm
same,Gly (ppm),"[15]; 0.75 lb, 4 lf, grain",0.50 ppm
same,Gly (ppm),"[15]; 0.75 lb, 4 lf, hay",1.20 ppm
same,Gly (ppm),"[15]; 0.75 lb, 4 lf, straw",0.50 ppm
same,Gly (ppm),"[15]; 2 × 0.75 lb, 4 lf/Preboot, forage",2.60 ppm
same,Gly (ppm),"[15]; 2 × 0.75 lb, 4 lf/Preboot, grain",7.50 ppm
same,Gly (ppm),"[15]; 2 × 0.75 lb, 4 lf/Preboot, hay",13.00 ppm
same,Gly (ppm),"[15]; 2 × 0.75 lb, 4 lf/Preboot, straw",5.30 ppm
same,tissue glyphosate at which complete disease prevention was attained,"Puccinia spores [16]; shielded (untreated) wheat leaf, spray application of ½× of Roundup, inoculated 1DAT",1.3 ppm
same,disease incidence versus spray dose,"Puccinia spores [16]; shielded wheat leaf, 11 days after inoculation, 0-1× spray",decrease in disease incidence with an increase in spray dose
same,"In vitro EC90, ppm",Pyricularia,5000 ppm
same,average disease rating,"[17]; hybrid corn, treatment #1 (pre-inoculation), 2× rate (1.5 lb./A), 1=resistant, 9=susceptible, control 4.1",3.6
same,disease rating,"[17]; hybrid corn, treatment #1 (pre-inoculation), 3× rate (2.25 lb./A), control 4.1",3.0
same,disease rating,"[17]; hybrid corn, treatment #2 (14 days post inoculation), control 4.1",4.1
same,disease rating,"[17]; hybrid corn, treatment #3 (28 days post inoculation), control 4.1",3.9
same,disease rating,"[17]; inbred corn, post inoculation treatments, second value",4.9
same,disease rating,"[17]; inbred corn, post inoculation treatments",4.4
same,average disease rating,"[17]; inbred corn, treatment #1 (pre-inoculation), 2× rate, controls 5.0 and 4.9",4.0
same,average disease rating,"[17]; inbred corn, treatment #1 (pre-inoculation), 3× rate, controls 5.0 and 4.9",3.2
same,Gly (ppm),"[18]; 3 × 0.75, 2 lf/12 lf/12 lf + 30 d, beet",6.60 ppm
same,Gly (ppm),"[18]; 3 × 0.75, 2 lf/12 lf/12 lf + 30 d, tops",4.30 ppm
same,Gly (ppm),"[18]; 3 × 0.75 lb, 2 lf/6 lf/12 lf, beet",0.50 ppm
same,Gly (ppm),"[18]; 3 × 0.75 lb, 2 lf/6 lf/12 lf, tops",0.40 ppm
same,"In vitro EC90, ppm",Phytophthora,1000 ppm
same,"In vitro EC90, ppm",Pseudocercosporella,<100 ppm
same,development of pustules,"rust spores; 1× glyphosate at 4DAI, lesions already present at treatment",no development of pustules
same,infection level,"rust spores; wheat 3-leaf stage, 1× glyphosate after inoculation, untreated/surfactant between 10% and about 25%",either no infection or no progression to an existing infection
same,"In vitro EC90, ppm",Gaeumannomyces,1000 ppm
same,percent disease of Asian soybean rust,"Asian soybean rust [19]; RR8000, Trt 2 glyp 1X every two weeks from V3, 14 d-1 spray",23.3%
same,percent disease of Asian soybean rust,"Asian soybean rust [19]; RR8000, Trt 2 glyp 1X every two weeks from V3, 28 d-2 sprays",41.7%
same,percent disease of Asian soybean rust,"Asian soybean rust [19]; RR8000, Trt 2 glyp 1X every two weeks from V3, 42 d-3 sprays",48.3%
same,percent disease of Asian soybean rust,"Asian soybean rust [19]; RR8000, Trt 2 glyp 1X every two weeks from V3, 56 d-4 sprays",88.3%
same,percent disease of Asian soybean rust,"Asian soybean rust [19]; RR8000, Trt 3 glyp 2X every two weeks from V3, 14 d-1 spray",10.0%
same,percent disease of Asian soybean rust,"Asian soybean rust [19]; RR8000, Trt 3 glyp 2X every two weeks from V3, 28 d-2 sprays",10.0%
same,percent disease of Asian soybean rust,"Asian soybean rust [19]; RR8000, Trt 3 glyp 2X every two weeks from V3, 42 d-3 sprays",10.0%
same,percent disease of Asian soybean rust,"Asian soybean rust [19]; RR8000, Trt 3 glyp 2X every two weeks from V3, 56 d-4 sprays",30.0%
same,percent disease of Asian soybean rust,"Asian soybean rust [19]; RR8045, Trt 2 glyp 1X every two weeks from V3, 14 d-1 spray",50.0%
same,percent disease of Asian soybean rust,"Asian soybean rust [19]; RR8045, Trt 2 glyp 1X every two weeks from V3, 28 d-2 sprays",56.7%
same,percent disease of Asian soybean rust,"Asian soybean rust [19]; RR8045, Trt 2 glyp 1X every two weeks from V3, 42 d-3 sprays",71.7%
same,percent disease of Asian soybean rust,"Asian soybean rust [19]; RR8045, Trt 2 glyp 1X every two weeks from V3, 56 d-4 sprays",86.7%
same,percent disease of Asian soybean rust,"Asian soybean rust [19]; RR8045, Trt 3 glyp 2X every two weeks from V3, 14 d-1 spray",3.3%
same,percent disease of Asian soybean rust,"Asian soybean rust [19]; RR8045, Trt 3 glyp 2X every two weeks from V3, 28 d-2 sprays",10.0%
same,percent disease of Asian soybean rust,"Asian soybean rust [19]; RR8045, Trt 3 glyp 2X every two weeks from V3, 42 d-3 sprays",13.3%
same,percent disease of Asian soybean rust,"Asian soybean rust [19]; RR8045, Trt 3 glyp 2X every two weeks from V3, 56 d-4 sprays",73.3%
same,"In vitro EC90, ppm",Rhizoctonia,1000 ppm
